According to article PMC2894482 (Journal of medicinal chemistry, 2009):

What was measured:
[1] = tested on: cocaine self-administration; settings: cited from earlier work
[2] = biological target: T1, mGluR5 (Rattus norvegicus, UniProt P31424); type: binding; settings: alkyne 11 vs similarly substituted amide 34
[3] = tested on: rats; experiment: Preliminary in vivo testing in rats; settings: personal communication with Dr. S. Barak Caine
[4] = biological target: T1, mGluR5; experiment: mGluR5 radioligand binding with [3H]1, rat brain membranes
[5] = biological target: rat mGluR5 (Rattus norvegicus, UniProt P31424); experiment: Calcium fluorescence assay; type: cell-based
rat mGluR5, sequence (P31424 21-1203): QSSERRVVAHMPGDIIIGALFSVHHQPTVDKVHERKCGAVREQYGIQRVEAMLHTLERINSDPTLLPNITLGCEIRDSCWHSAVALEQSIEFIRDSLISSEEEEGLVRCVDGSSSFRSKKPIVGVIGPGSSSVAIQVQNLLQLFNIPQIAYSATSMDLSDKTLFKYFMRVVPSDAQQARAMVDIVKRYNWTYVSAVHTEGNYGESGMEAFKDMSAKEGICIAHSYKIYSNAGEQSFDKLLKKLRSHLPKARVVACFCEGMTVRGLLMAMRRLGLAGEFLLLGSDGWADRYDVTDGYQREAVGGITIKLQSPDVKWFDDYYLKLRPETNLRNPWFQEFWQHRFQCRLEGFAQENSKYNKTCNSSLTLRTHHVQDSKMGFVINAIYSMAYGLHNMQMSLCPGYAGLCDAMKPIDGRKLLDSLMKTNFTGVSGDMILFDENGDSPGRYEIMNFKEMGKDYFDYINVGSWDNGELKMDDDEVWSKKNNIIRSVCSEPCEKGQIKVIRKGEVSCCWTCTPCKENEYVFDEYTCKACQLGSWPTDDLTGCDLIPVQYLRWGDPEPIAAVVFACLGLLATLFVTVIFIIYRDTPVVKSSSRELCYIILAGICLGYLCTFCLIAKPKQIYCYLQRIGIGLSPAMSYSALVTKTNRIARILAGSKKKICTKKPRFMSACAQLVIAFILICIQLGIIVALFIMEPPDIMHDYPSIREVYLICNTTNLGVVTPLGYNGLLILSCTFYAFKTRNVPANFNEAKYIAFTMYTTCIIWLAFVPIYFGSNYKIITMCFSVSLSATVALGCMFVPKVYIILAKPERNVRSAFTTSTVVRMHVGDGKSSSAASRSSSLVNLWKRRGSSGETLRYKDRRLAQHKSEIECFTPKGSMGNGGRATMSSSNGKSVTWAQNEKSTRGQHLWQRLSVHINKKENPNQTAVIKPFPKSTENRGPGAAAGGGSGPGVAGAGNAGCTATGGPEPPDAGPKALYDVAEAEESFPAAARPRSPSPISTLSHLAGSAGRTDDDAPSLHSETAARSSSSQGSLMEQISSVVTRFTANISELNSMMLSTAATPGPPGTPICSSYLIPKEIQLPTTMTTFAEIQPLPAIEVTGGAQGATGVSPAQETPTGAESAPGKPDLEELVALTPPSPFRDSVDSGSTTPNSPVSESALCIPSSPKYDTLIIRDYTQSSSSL

T1 sequence (P31424 21-1203): as above

| SMILES | Ki [4] | IC50 [5] | also measured |
| --- | --- | --- | --- |
| Cc1cccc(C#Cc2ccccc2)n1 [Compound 1, 2-methyl-6-(phenylethynyl)pyridine] | – | – | effect on cocaine self-administration [1]: dose-dependently decreases; effect on food intake ([1]; identical schedules of reinforcement): no effect |
| Cc1nc(C#Cc2cc(F)cc(C#N)c2)cs1 [Compound 11, 3-Fluoro-5-cyano-1-(2-methylthiazol-4-ylethynyl)benzene] | – | – | fold higher affinity at mGluR5 than the amide [2]: > 70 fold; toxicity in preliminary in vivo testing [3]: showed toxicity |
| Cc1cccc(C#Cc2ccc(-c3ccccc3)c(C#N)c2)n1 [Compound 21, 2-Phenyl-5-(6-methylpyridin-2-ylethynyl)benzonitrile] | 4 ± 0.6 nM | 3.08 ± 0.61 nM | – |
| Cc1cccc(C#Cc2ccc(-c3cccc(F)c3)c(C#N)c2)n1 [Compound 22, 2-(3-Fluorophenyl)-5-(6-methylpyridin-2-ylethynyl)benzonitrile] | 17 ± 2.2 nM | 6.1 ± 1.95 nM | – |
